In patent US10870627B2, “Salt of quinazoline derivative, preparation method therefor and application thereof” (SHANGHAI PHARMACEUTICALS HOLDING CO., LTD., priority 2016, dated 2020):
Like-named read-outs stand apart in the source and are kept apart here.

Legend:
[1] = Solid-state stability test; format: physicochemical
Method: An appropriate amount of the drugs were placed in the surface dish, spread to a thickness of 3-5 mm, and exposed in high temperature, high temperature and high humidity, illumination and oxidation conditions for 10 days respectively, and the solid-state characterization was performed. The purity and the number of impurities 0.05%) of the samples for testing were determined by HPLC, and compared with the samples on day 0. The exposure conditions are:
High temperature (an oven with T=60° C.);
Illumination (25° C., a 4500±500 lx light incubator);
Oxidation (25° C., a closed container containing urea hydrogen peroxide).

[2] = Comparison of absorption in rats after intragastric administration of free base and salt (plasma pharmacokinetics); format: in vivo, SD rats
Method: The blood sample was centrifuged at 8000 RPM for 5 minutes, followed by the isolation of the upper plasma. […] 200 μL of the supernatant was taken and centrifuged again for 10 minutes. 50 μL of the supernatant was injected in a 96-well plate. The plasma drug concentration was determined by LC/MS/MS, and the corresponding pharmacokinetic parameters were calculated.

Solution stability test = format: physicochemical
Method: About 15 mg of the sample was weighed accurately, dissolved with 25 mL of the test solvent (10% aqueous acetone solution, pH=4.0 B-R buffer solution, SGF, SIF) via ultrasound for 20 minutes. The solution was divided into four portions and placed in the clear glass vials, followed by sealing. The samples were exposed in different environments and sampled on day 0 and day 5. The purity of each sample was determined by HPLC, and the number of impurities greater than 0.05% was calculated and compared with the samples on day 0. The exposure environments are:
Room temperature and light-proof test, 25° C.; […]
Illumination experiment (4500±500 lx), 25° C.;
Oxidation experiment (3% v/v hydrogen peroxide), 25° C.

[3] = Water solubility at 20° C. determined by HPLC; format: physicochemical
Method: The solubility was determined as follows: a certain amount of the sample was weighed and the solvent was added thereto in portions with stirring or ultrasonication to accelerate dissolution; the amount of the consumed solvent was recorded once the sample was dissolved. […] A certain volume of the solution was taken, followed by filtration, concentration, dissolved with a certain volume of other suitable solvents and subjected to HPLC measurement to obtain accurate data of the solubility.

[4] = Dynamic vapor sorption (DVS), isothermal absorption analysis; format: physicochemical
Method: In the present invention, according to the common knowledge in the art, the amount of water absorption obtained from the dynamic vapor sorption (DVS) pattern is expressed in percentage by weight.
The isothermal absorption analysis (DVS) data was collected from TA Instruments Q5000 TGA. The software for instrument control was Thermal Advantage and software for analysis was Universal Analysis. 1-10 mg of the sample was generally placed in a platinum crucible, and the weight change of the sample during the relative humidity changing from 20% to 80% was recorded by the TA software. Depending on the specifics of the sample, different steps of sample adsorption and desorption were also involved.

[5] = 10 d, High temperature (oven, T=60° C.)
[6] = 10 d, High temperature and high humidity (40° C., 75% relative humidity)
[7] = 10 d, Illumination (25° C., 4500±500 lx)
[8] = 10 d, Oxidation (25° C., closed container with urea hydrogen peroxide)
[9] = rat, po, 20 umol/kg, SD rats, intragastric administration, plasma
[10] = 10% aqueous acetone solution, 5 d, High temperature
[11] = 10% aqueous acetone solution, 5 d, High temperature and high humidity
[12] = 10% aqueous acetone solution, 5 d, Illumination (4500±500 lx, 25° C.)
[13] = B-R Buffer solution (pH=4.0), 5 d, High temperature
[14] = B-R Buffer solution (pH=4.0), 5 d, High temperature and high humidity
[15] = B-R Buffer solution (pH=4.0), 5 d, Illumination (4500±500 lx, 25° C.)
[16] = B-R Buffer solution (pH=4.0), 5 d, Oxidation (3% v/v hydrogen peroxide, 25° C.)
[17] = SGF, 5 d, High temperature and high humidity
[18] = SGF, 5 d, Illumination (4500±500 lx, 25° C.)
[19] = SGF, 5 d, Oxidation (3% v/v hydrogen peroxide, 25° C.)
[20] = SIF, 5 d, High temperature and high humidity
[21] = SIF, 5 d, Illumination (4500±500 lx, 25° C.)
[22] = SIF, 5 d, Oxidation (3% v/v hydrogen peroxide, 25° C.)
[23] = SD rats, 20 μmol/kg, intragastric administration, plasma
[24] = relative humidity range of 50-80%

C=C(F)C(=O)Nc1cc2c(Nc3ccc(F)c(Cl)c3)ncnc2cc1OCCCN1CCOCC1 [N-[4-(3-chloro-4-fluoroanilino)]-7-(3-morpholinopropoxy)-6-(2-fluoroacrylamido)-quinazoline, reference compound]
Number of impurities ([1]; 0 d): 1 | Number of impurities [1, 5]: 2 | Purity [1, 5]: 99.0% | Number of impurities [1, 6]: 3 | Purity [1, 6]: 99.0% | Number of impurities [1, 7]: 2 | Purity [1, 7]: 99.0% | Number of impurities [1, 8]: 3 | Purity [1, 8]: 99.0% | AUC (0-t) ([2]; rat, po, 20 umol/kg, SD rats, 20 μmol/kg, intragastric administration, plasma, read-out: AUC (0-t) (converted)): 2.05 µM·h | MRT last ([2]; rat, po, 20 umol/kg, SD rats, 20 μmol/kg, intragastric administration, plasma, read-out: MRT (0-T) (converted)): 6.66 h | Tmax ([2]; rat, po, 20 umol/kg, SD rats, 20 μmol/kg, intragastric administration, plasma, read-out: Tmax (converted)): 1 h | Cmax [2, 9]: 310 ± 70 nM | half-life [2, 9]: 4.28 ± 1.77 h | Purity (Solution stability test; 10% aqueous acetone solution, 0 d): 93.4% | Number of impurities (Solution stability test; 10% aqueous acetone solution, 0 d, impurities greater than 0.05%): 2 | Number of impurities (Solution stability test; [10]): 2 | Purity (Solution stability test; [10]): 83.1% | Number of impurities (Solution stability test; [11]): 6 | Purity (Solution stability test; [11]): 13.3% | Number of impurities (Solution stability test; [12]): 4 | Purity (Solution stability test; [12]): 61.5% | Purity (Solution stability test; 10% aqueous acetone solution, 5 d, Oxidation (3% v/v hydrogen peroxide, 25° C.)): Complete | Purity (Solution stability test; B-R Buffer solution (pH=4.0), 0 d): 99.0% | Number of impurities (Solution stability test; B-R Buffer solution (pH=4.0), 0 d, impurities greater than 0.05%): 1 | Number of impurities (Solution stability test; [13]): 1 | Purity (Solution stability test; [13]): 99.0% | Number of impurities (Solution stability test; [14]): 4 | Purity (Solution stability test; [14]): 95.0% | Number of impurities (Solution stability test; [15]): 1 | Purity (Solution stability test; [15]): 99.0% | Number of impurities (Solution stability test; [16]): 13 | Purity (Solution stability test; [16]): 40.6% | Purity (Solution stability test; SGF, 0 d): 99.0% | Number of impurities (Solution stability test; SGF, 0 d, impurities greater than 0.05%): 2 | Number of impurities (Solution stability test; SGF, 5 d, High temperature): 2 | Purity (Solution stability test; SGF, 5 d, High temperature): 99.0% | Number of impurities (Solution stability test; [17]): 4 | Purity (Solution stability test; [17]): 94.2% | Number of impurities (Solution stability test; [18]): 2 | Purity (Solution stability test; [18]): 99.0% | Number of impurities (Solution stability test; [19]): 3 | Purity (Solution stability test; [19]): 84.3% | Purity (Solution stability test; SIF, 0 d): 88.9% | Number of impurities (Solution stability test; SIF, 0 d, impurities greater than 0.05%): 1 | Number of impurities (Solution stability test; SIF, 5 d, High temperature): 2 | Purity (Solution stability test; SIF, 5 d, High temperature): 85.6% | Number of impurities (Solution stability test; [20]): 4 | Purity (Solution stability test; [20]): 81.9% | Number of impurities (Solution stability test; [21]): 18 | Purity (Solution stability test; [21]): 50.0% | Number of impurities (Solution stability test; [22]): 5 | Purity (Solution stability test; [22]): 62.7%

C=C(F)C(=O)Nc1cc2c(Nc3ccc(F)c(Cl)c3)ncnc2cc1OCCCN1CCOCC1.O=C(O)[C@H](O)[C@@H](O)[C@H](O)[C@H](O)CO
AUC (0-t) [2, 23]: 8.0733 ± 3.3618 µM·h | MRT (0-T) [2, 23]: 6.2613 ± 2.5515 h | Tmax [2, 23]: 1.333 ± 0.5773 h | t1/2 [2, 23]: 3.5572 ± 0.3487 h | Cmax ([2]; SD rats, 20 μmol/kg, intragastric administration, plasma, listed as mono-D-gluconate): 1120 ± 280 nM | AUC (0-t) and Cmax, comparison in words ([2]; rats, oral, same dose, free base and 6 salts): relatively low | water solubility at 20° C. determined by HPLC [3]: 51.4 µg/mL

C=C(F)C(=O)Nc1cc2c(Nc3ccc(F)c(Cl)c3)ncnc2cc1OCCCN1CCOCC1.O.O.O=C(O)CC(O)(CC(=O)O)C(=O)O [crystal form 11 of the dihydrate]
stability of the hydrate (DVS), in words [4, 24]: stable | weight change (water absorbed) by DVS [4, 24]: 5.3%

C=C(F)C(=O)Nc1cc2c(Nc3ccc(F)c(Cl)c3)ncnc2cc1OCCCN1CCOCC1.O.O.O.O=C(O)CC(O)(CC(=O)O)C(=O)O [crystal form 10 of the trihydrate]
water eliminated by DVS ([4]; below a relative humidity of 50%): 3.5% | stability of the hydrate (DVS), in words [4, 24]: stable | weight change (water absorbed) by DVS [4, 24]: 1.1%

C=C(F)C(=O)Nc1cc2c(Nc3ccc(F)c(Cl)c3)ncnc2cc1OCCCN1CCOCC1.O=C(O)CC(O)(CC(=O)O)C(=O)O [crystal form 13 of the monocitrate]
weight change (water absorbed) by DVS ([4]; relative humidity range of 20-80%): 0.2%
